Several values for one entry are separate records, joined by “and”; a condition that tells them apart may be missing. Equal values may be shown once.
Tests used:
U251 tumors = assay: Subcutaneous xenograft model; assay type: in vivo; conditions: 100 mg/kg oral once daily; U251 xenograft in nude mice; vs vehicle
Experimental: (§1) Figure 5 Anti-tumor activities of YLT192 in vivo. (A) U251 and HCT116 tumor-bearing mice were treated orally with YLT192 at 25, 50 and 100 mg/kg or vehicle daily, respectively. […] (B) Body weight changes in YLT192 and vehicle treated mice. […] For A and B, data are means ± SD. (C) and (D), YLT192 inhibited tumor cell proliferation in HCT116 tumor tissues in vivo. Mice bearing HCT116 tumor xenograft were treated with YLT192 at 50 and 100 mg/kg or vehicle and sacrificed at the end of the experiment. The tumor tissues were removed for further immunohistochemistry analysis using anti-Ki67 (C) and anti-p-p44/42 MAPK antibodies (D). (E) YLT192 induced tumor cell apoptosis in HCT116 tumor in vivo. Apoptosis was measured by TUNEL staining (n = 6 mice per group). Scale bars represent 100 μm.
(§2) All animal experiments were approved and conducted by the Institutional Animal Care and Treatment Committee of Sichuan University in China (Permit Number: 20121205). […] Tumor growth and body weight was measured every three days during the treatment. Tumor volumes were calculated using the formula as follow: volume (mm^3) = 0.5 × length (mm) × width (mm)^2. Growth inhibition was calculated from the start of treatment by comparison of the mean change in tumor volume for vehicle and treated group as before.

HCT116 tumors = assay: Subcutaneous xenograft model; assay type: in vivo; conditions: 100 mg/kg oral once daily; HCT116 xenograft in nude mice; vs vehicle
Experimental: as §1, §2

mTOR = target: T1, mTOR (Homo sapiens, UniProt P42345); assay: Radiometric kinase assay (Millipore Kinase Profile Service); assay type: biochemical; conditions: means ± SD, two independent experiments, read-out: inhibition rate at 1 μM (%)
T1 construct: purchased Millipore (Kinase Profile Service, UK)
Experimental: (§3) YLT192 was designed and synthesized in the State Key Laboratory of Biotherapy, Sichuan University (Sichuan, China). Its structural formula and synthesis route was shown in Fig. 1A and Supplementary Figure S1, respectively. The kinase inhibitory activity of YLT192 was measured by the use of radiometric assays provided by Kinase Profile Service (Millipore, UK). The effects of YLT192 on kinase activity were detected using the scintillation proximity assay method at an enzymatic level. […] In addition, the inhibitory activity of YLT192 was examined against platelet-derived growth factor receptor (PDGFR)-related kinases because of their structural similarity to the VEGFR2. […] Moreover, excellent selectivity for VEGFR2 was evident compared with a range of unrelated tyrosine and serine/threonine kinases, including fibroblast growth factor receptor 3, polo-like kinase 1, aurora-A, Axl, MET, protein kinase A, c-RAF etc.

GSK3β = target: T2, GSK3β (Homo sapiens, UniProt P49841); assay: as above; assay type: biochemical; conditions: means ± SD, two independent experiments, read-out: inhibition rate at 1 μM (%)
T2 construct: purchased Millipore (Kinase Profile Service, UK)
Experimental: as §3

LCK = target: T3, LCK (Homo sapiens, UniProt P06239); assay: as above; assay type: biochemical; conditions: means ± SD, two independent experiments, read-out: inhibition rate at 1 μM (%)
T3 construct: purchased Millipore (Kinase Profile Service, UK)
T3 sequence (P06239 whole entry): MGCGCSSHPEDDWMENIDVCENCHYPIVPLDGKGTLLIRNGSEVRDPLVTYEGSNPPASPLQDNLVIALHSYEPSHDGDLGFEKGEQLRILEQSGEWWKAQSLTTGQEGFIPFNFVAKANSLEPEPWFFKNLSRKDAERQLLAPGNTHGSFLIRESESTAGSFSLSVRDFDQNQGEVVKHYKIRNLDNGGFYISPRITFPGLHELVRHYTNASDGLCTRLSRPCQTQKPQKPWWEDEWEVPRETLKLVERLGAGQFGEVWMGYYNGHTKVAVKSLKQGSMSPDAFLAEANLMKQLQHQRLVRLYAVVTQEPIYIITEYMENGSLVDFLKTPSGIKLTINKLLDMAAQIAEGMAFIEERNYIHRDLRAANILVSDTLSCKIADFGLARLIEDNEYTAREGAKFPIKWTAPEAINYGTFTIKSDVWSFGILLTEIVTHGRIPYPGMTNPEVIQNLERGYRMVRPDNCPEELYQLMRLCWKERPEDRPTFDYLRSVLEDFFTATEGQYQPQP
Experimental: as §3

Axl = target: T4, Axl (Homo sapiens, UniProt P30530); assay: as above; assay type: biochemical; conditions: means ± SD, two independent experiments, read-out: inhibition rate at 1 μM (%)
T4 construct: purchased Millipore (Kinase Profile Service, UK)
Experimental: as §3

PKA = target: T5, PKA (Homo sapiens, UniProt P17612); assay: as above; assay type: biochemical; conditions: means ± SD, two independent experiments, read-out: inhibition rate at 1 μM (%)
T5 construct: purchased Millipore (Kinase Profile Service, UK)
Experimental: as §3

JAK3 = target: T6, JAK3 (Homo sapiens, UniProt P52333); assay: as above; assay type: biochemical; conditions: means ± SD, two independent experiments, read-out: inhibition rate at 1 μM (%)
T6 construct: purchased Millipore (Kinase Profile Service, UK)
Experimental: as §3

PI3K = assay: as above; assay type: biochemical; conditions: means ± SD, two independent experiments
Experimental: as §3

FGFR2 = target: T7, FGFR2 (Homo sapiens, UniProt P21802); assay: as above; assay type: biochemical; conditions: means ± SD, two independent experiments, read-out: inhibition rate at 1 μM (%)
T7 construct: purchased Millipore (Kinase Profile Service, UK)
T7 sequence (P21802 22-821): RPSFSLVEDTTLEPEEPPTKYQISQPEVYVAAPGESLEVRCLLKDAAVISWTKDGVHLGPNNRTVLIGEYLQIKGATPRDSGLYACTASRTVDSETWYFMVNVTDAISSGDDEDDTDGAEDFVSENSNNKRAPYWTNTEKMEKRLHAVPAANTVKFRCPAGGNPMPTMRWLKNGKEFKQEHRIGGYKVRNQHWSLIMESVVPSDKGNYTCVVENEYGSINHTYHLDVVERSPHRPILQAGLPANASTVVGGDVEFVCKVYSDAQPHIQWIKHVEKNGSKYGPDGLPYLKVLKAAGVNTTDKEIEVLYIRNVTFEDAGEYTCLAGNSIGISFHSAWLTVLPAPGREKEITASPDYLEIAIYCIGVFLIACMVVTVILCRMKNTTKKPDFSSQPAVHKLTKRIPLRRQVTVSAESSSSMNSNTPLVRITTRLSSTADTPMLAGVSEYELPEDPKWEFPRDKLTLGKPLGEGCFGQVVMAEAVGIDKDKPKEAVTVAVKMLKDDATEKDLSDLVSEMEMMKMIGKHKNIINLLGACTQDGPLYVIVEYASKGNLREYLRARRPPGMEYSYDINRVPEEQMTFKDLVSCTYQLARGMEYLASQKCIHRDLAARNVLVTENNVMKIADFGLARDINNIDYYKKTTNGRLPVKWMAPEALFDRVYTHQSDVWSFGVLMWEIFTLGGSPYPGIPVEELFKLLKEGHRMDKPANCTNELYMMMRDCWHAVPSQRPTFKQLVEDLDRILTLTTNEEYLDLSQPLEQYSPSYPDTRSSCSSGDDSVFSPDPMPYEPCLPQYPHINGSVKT
Experimental: as §3

PDGFRα = target: T8, PDGFRα (Homo sapiens, UniProt P16234); assay: as above; assay type: biochemical; conditions: means ± SD, two independent experiments, read-out: inhibition rate at 1 μM (%)
T8 construct: purchased Millipore (Kinase Profile Service, UK)
Experimental: as §3

c-RAF = target: T9, c-RAF (Homo sapiens, UniProt P04049, Y340D/Y341D); assay: as above; assay type: biochemical; conditions: means ± SD, two independent experiments, read-out: inhibition rate at 1 μM (%)
T9 construct: purchased Millipore (Kinase Profile Service, UK)
T9 sequence (P04049 306-648 Y340D/Y341D limits assumed): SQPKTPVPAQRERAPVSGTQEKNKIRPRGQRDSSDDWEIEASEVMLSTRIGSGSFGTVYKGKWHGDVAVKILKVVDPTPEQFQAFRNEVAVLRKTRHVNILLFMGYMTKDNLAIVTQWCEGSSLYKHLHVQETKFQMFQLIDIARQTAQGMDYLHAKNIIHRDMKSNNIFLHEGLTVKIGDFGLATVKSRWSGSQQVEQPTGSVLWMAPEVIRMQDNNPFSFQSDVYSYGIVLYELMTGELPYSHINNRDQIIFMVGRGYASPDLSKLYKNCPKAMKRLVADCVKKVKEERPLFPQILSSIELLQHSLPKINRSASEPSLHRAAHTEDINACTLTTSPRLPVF
Experimental: as §3

Plk1 = target: T10, Plk1 (Homo sapiens, UniProt P53350); assay: as above; assay type: biochemical; conditions: means ± SD, two independent experiments, read-out: inhibition rate at 1 μM (%)
T10 construct: purchased Millipore (Kinase Profile Service, UK)
Experimental: as §3

FGFR1 = target: T11, FGFR1 (Homo sapiens, UniProt P11362); assay: as above; assay type: biochemical; conditions: means ± SD, two independent experiments, read-out: inhibition rate at 1 μM (%)
T11 construct: purchased Millipore (Kinase Profile Service, UK)
Experimental: as §3

cKit = target: T12, cKit (Homo sapiens, UniProt P10721); assay: as above; assay type: biochemical; conditions: means ± SD, two independent experiments, read-out: inhibition rate at 1 μM (%)
T12 construct: purchased Millipore (Kinase Profile Service, UK)
Experimental: as §3

EGFR = target: T13, EGFR (Homo sapiens, UniProt P00533); assay: as above; assay type: biochemical; conditions: means ± SD, two independent experiments, read-out: inhibition rate at 1 μM (%)
T13 construct: purchased Millipore (Kinase Profile Service, UK)
Experimental: as §3

Flt3 = target: T14, Flt3 (Homo sapiens, UniProt P36888); assay: as above; assay type: biochemical; conditions: means ± SD, two independent experiments
T14 construct: purchased Millipore (Kinase Profile Service, UK)
T14 sequence (P36888 27-993): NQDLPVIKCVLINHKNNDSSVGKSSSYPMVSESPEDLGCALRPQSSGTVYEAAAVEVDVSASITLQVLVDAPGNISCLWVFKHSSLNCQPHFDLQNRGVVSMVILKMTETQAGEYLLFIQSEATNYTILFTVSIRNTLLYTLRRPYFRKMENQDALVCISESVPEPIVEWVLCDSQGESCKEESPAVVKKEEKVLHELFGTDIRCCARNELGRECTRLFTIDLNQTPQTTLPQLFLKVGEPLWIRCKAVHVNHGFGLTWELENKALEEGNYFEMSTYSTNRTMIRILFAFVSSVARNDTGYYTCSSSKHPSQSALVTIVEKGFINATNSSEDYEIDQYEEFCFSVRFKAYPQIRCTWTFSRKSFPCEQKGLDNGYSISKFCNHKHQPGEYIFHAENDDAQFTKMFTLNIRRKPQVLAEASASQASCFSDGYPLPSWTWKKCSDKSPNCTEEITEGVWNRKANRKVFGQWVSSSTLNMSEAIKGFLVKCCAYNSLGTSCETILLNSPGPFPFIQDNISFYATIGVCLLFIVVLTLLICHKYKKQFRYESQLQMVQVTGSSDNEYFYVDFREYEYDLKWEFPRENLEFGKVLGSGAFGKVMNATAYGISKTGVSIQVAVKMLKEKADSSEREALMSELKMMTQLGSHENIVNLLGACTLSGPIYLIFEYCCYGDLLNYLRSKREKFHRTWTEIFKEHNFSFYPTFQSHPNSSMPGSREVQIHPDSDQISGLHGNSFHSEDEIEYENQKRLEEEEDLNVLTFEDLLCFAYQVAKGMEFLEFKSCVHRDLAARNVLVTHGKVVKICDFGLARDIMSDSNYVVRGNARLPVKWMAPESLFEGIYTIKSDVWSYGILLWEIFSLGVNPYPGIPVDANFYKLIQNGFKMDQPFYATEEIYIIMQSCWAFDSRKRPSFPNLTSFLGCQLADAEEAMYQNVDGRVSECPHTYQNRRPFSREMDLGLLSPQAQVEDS
Experimental: as §3

Aurora-B = target: T15, Aurora-B (Homo sapiens, UniProt Q96GD4); assay: as above; assay type: biochemical; conditions: means ± SD, two independent experiments, read-out: inhibition rate at 1 μM (%)
T15 construct: purchased Millipore (Kinase Profile Service, UK)
Experimental: as §3

IKKβ = target: T16, IKKβ (Homo sapiens, UniProt O14920); assay: as above; assay type: biochemical; conditions: means ± SD, two independent experiments, read-out: inhibition rate at 1 μM (%)
T16 construct: purchased Millipore (Kinase Profile Service, UK)
Experimental: as §3

Fms = target: T17, Fms (Homo sapiens, UniProt P07333); assay: as above; assay type: biochemical; conditions: means ± SD, two independent experiments, read-out: inhibition rate at 1 μM (%)
T17 construct: purchased Millipore (Kinase Profile Service, UK)
T17 sequence (P07333 20-972): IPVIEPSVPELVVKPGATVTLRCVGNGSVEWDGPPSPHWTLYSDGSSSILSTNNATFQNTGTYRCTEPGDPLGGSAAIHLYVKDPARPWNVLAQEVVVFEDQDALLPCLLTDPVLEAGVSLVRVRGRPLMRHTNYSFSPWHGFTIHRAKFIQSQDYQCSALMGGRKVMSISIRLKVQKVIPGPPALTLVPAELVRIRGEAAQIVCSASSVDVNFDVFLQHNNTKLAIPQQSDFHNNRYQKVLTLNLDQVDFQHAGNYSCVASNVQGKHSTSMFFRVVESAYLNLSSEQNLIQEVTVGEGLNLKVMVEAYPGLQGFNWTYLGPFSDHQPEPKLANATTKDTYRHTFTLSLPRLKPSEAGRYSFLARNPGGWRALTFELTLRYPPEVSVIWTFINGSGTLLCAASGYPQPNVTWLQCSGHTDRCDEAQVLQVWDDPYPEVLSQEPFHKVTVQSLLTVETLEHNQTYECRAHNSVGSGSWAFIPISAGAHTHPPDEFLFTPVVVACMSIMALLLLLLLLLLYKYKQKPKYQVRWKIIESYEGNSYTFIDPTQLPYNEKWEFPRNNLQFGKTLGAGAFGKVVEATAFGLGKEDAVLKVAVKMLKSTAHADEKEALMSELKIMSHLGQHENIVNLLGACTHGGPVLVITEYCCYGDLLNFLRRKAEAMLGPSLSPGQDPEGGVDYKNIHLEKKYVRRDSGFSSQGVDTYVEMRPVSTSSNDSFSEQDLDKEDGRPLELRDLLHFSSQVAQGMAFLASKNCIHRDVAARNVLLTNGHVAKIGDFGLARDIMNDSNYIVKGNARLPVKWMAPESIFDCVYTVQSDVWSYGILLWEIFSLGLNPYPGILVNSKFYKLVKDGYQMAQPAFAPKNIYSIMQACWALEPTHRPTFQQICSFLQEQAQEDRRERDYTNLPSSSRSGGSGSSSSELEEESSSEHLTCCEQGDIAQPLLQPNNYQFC
Experimental: as §3

JNK3 = target: T18, JNK3 (Homo sapiens, UniProt P53779); assay: as above; assay type: biochemical; conditions: means ± SD, two independent experiments, read-out: inhibition rate at 1 μM (%)
T18 construct: purchased Millipore (Kinase Profile Service, UK)
Experimental: as §3

IR = target: T19, IR (Homo sapiens, UniProt P06213); assay: as above; assay type: biochemical; conditions: means ± SD, two independent experiments, read-out: inhibition rate at 1 μM (%)
T19 construct: purchased Millipore (Kinase Profile Service, UK)
Experimental: as §3

FGFR3 = target: T20, FGFR3 (Homo sapiens, UniProt P22607); assay: as above; assay type: biochemical; conditions: means ± SD, two independent experiments, read-out: inhibition rate at 1 μM (%)
T20 construct: purchased Millipore (Kinase Profile Service, UK)
Experimental: as §3

PDGFRβ = target: T21, PDGFRβ (Homo sapiens, UniProt P09619); assay: as above; assay type: biochemical; conditions: means ± SD, two independent experiments, read-out: inhibition rate at 1 μM (%)
T21 construct: purchased Millipore (Kinase Profile Service, UK)
T21 sequence (P09619 33-1106): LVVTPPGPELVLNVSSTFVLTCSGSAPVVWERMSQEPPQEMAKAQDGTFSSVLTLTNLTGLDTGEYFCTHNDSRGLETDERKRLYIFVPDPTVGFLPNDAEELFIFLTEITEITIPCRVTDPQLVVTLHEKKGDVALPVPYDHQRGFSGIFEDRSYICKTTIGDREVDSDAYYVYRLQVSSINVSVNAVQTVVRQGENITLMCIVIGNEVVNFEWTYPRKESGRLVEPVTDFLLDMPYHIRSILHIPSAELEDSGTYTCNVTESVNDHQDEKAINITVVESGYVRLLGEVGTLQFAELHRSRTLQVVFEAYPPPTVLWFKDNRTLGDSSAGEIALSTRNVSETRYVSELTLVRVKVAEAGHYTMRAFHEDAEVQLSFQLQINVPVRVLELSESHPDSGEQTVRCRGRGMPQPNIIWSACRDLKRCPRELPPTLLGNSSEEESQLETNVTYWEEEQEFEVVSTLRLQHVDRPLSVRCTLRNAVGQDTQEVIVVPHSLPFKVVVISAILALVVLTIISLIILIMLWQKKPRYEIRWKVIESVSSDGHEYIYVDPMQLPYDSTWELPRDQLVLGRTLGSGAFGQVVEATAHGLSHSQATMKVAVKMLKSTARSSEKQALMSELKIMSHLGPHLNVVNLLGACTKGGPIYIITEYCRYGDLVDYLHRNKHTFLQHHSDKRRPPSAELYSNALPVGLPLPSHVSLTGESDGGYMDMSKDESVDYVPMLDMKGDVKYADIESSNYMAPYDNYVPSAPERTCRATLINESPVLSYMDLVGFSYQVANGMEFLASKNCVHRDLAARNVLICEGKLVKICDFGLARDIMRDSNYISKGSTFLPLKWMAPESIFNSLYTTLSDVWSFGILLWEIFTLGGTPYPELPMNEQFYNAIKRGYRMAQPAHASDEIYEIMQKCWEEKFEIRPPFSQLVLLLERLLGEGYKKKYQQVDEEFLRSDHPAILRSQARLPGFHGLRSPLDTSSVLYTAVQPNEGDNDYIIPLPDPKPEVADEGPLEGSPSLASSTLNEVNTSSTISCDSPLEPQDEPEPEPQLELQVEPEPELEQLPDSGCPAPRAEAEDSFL
Experimental: as §3

Met = target: T22, Met (Homo sapiens, UniProt P08581); assay: as above; assay type: biochemical; conditions: means ± SD, two independent experiments, read-out: inhibition rate at 1 μM (%)
T22 construct: purchased Millipore (Kinase Profile Service, UK)
Experimental: as §3

Ret = target: T23, Ret (Homo sapiens, UniProt P07949); assay: as above; assay type: biochemical; conditions: means ± SD, two independent experiments, read-out: inhibition rate at 1 μM (%)
T23 construct: purchased Millipore (Kinase Profile Service, UK)
Experimental: as §3

CDK2/cyclinE = target: T24, CDK2/cyclinE (Homo sapiens, UniProt P24941); assay: as above; assay type: biochemical; conditions: means ± SD, two independent experiments, read-out: inhibition rate at 1 μM (%)
T24 construct: purchased Millipore (Kinase Profile Service, UK)
Experimental: as §3

CDK6/cyclinD3 = target: T25, CDK6/cyclinD3 (Homo sapiens, UniProt Q00534); assay: as above; assay type: biochemical; conditions: means ± SD, two independent experiments, read-out: inhibition rate at 1 μM (%)
T25 construct: purchased Millipore (Kinase Profile Service, UK)
Experimental: as §3

Aurora-A = target: T26, Aurora-A (Homo sapiens, UniProt O14965); assay: as above; assay type: biochemical; conditions: means ± SD, two independent experiments, read-out: inhibition rate at 1 μM (%)
T26 construct: purchased Millipore (Kinase Profile Service, UK)
T26 sequence (O14965 whole entry): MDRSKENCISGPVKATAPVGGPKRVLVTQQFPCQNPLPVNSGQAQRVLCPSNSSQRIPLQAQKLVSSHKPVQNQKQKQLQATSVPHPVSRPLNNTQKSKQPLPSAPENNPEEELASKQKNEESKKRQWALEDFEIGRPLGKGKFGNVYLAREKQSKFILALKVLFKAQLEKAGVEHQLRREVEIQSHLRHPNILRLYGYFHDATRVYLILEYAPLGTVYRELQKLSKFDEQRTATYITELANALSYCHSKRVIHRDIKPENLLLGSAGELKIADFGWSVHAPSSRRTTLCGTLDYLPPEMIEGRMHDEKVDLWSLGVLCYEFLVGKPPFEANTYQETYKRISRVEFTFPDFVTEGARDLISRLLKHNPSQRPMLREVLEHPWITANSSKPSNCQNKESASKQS
Experimental: as §3

## CNC(=O)c1cc(Oc2ccc(NC(=O)c3cccc(OC)c3)cc2)ccn1 [YLT192]
U251 tumors
  tumor volume inhibition: 60%
HCT116 tumors
  tumor volume inhibition: 61%
mTOR
  inhibition at 1 µM: 0%
GSK3β
  inhibition at 1 µM: 4 ± 6%
LCK
  inhibition at 1 µM: 3 ± 6%
Axl
  inhibition at 1 µM: -7 ± 7%
PKA
  inhibition at 1 µM: -10 ± 4%
JAK3
  inhibition at 1 µM: -7 ± 4%
PI3K
  inhibition rate at 1 μM (%): 0 ± 2%
FGFR2
  inhibition at 1 µM: 19 ± 4%
PDGFRα
  inhibition at 1 µM: 5 ± 3%
c-RAF
  inhibition at 1 µM: 3 ± 3%
Plk1
  inhibition at 1 µM: 1 ± 3%
FGFR1
  inhibition at 1 µM: 21 ± 3%
cKit
  inhibition at 1 µM: 6 ± 3%
EGFR
  inhibition at 1 µM: 1 ± 6%
Flt3
  inhibition rate at 1 μM (%): 0% and −6 ± 2%
Aurora-B
  inhibition at 1 µM: 23 ± 5%
IKKβ
  inhibition at 1 µM: 2 ± 6%
Fms
  inhibition at 1 µM: 35 ± 11%
JNK3
  inhibition at 1 µM: 3 ± 5%
IR
  inhibition at 1 µM: 3 ± 3%
FGFR3
  inhibition at 1 µM: 4 ± 6%
PDGFRβ
  inhibition at 1 µM: 7 ± 8%
Met
  inhibition at 1 µM: -2 ± 6%
Ret
  inhibition at 1 µM: 23 ± 3%
CDK2/cyclinE
  inhibition at 1 µM: -9 ± 3%
CDK6/cyclinD3
  inhibition at 1 µM: 0%
Aurora-A
  inhibition at 1 µM: -1 ± 4%
